Laboratory results as given in patent US20250214986A1, “P2X3 INHIBITOR COMPOUND, SALT THEREOF, POLYMORPH THEREOF AND USE THEREOF” (HUMANWELL HEATHCARE (GROUP) CO., LTD., priority 2022, published 2025).
≈ marks a conversion by molar mass, not a printed value.

Experiments:
[1] = system: taste of SD rats; assay: Taste assay in rats (water vs. aqueous quinine intake); assay type: in vivo; details: 30 mg/kg, i.p., 0.3 mM aqueous quinine, 15 min intake half an hour after administration
Method: After 3 days of overnight water-deprivation training, SD rats were subjected to administration with the compound. Half an hour after administration, each animal was given one bottle of water and one bottle of 0.3 mM aqueous quinine solution. The water bottles were removed after 15 min, and the intake of water and the intake of 0.3 mM aqueous quinine solution by the rats were measured separately. The effect of the compound on the taste of SD rats was assessed based on the difference between the water intake and the aqueous quinine solution intake (FIG. 41).

[2] = Pharmacokinetic assay in mice; assay type: in vivo, male ICR mice
Method: Pharmacokinetic assay in mice was performed, wherein the mice used were male ICR mice weighing 20-25 g and fasted overnight. 3 mice were taken and given the compound by oral intragastric administration at 10 mg/kg, and blood was collected before administration and at 15 min, 30 min, 1 h, 2 h, 4 h, 8 h, and 24 h after administration. The blood samples were centrifuged at 6800 g at 2-8° C. for 6 min, and plasma was collected and stored at −80° C. […] The mixture was vortexed for 1 min and then centrifuged at 13000 rpm at 4° C. for 10 min. The supernatant was taken, and 3 times its amount of water was added for mixing. A proper amount of the resulting mixture was taken for LC-MS/MS analysis. The major pharmacokinetic parameters were analyzed using a non-compartmental model in the WinNonlin 7.0 software.

[3] = system: citric acid/ATP-stimulated cough model; assay: Cough efficacy assay of ATP/citric acid in guinea pigs; assay type: in vivo
Method: (§1) Before enrollment, the animals were acclimatized for 3-7 days. Once their body weight reached the standard (300-400 g), they were numbered and randomly grouped. 0.25-24 h before the start of the cough assessment, the compound or excipient was administered to the guinea pigs via intranasal instillation. The dose range for the administration of the test substance was 0.17-1.5 mg/kg. During the cough assessment, after the animals were acclimated in a whole-body plethysmography box, they were given ATP nebulization, and after a few minutes, they were given citric acid nebulization. The number of coughs and the cough latency of the animals were recorded within 15 min from the start of the citric acid nebulization. The one-way ANOVA method was used to analyze and compare the data of the groups. Statistical analysis results with p<0.05 were considered to indicate significant differences. Pairwise comparisons were performed using the t-test method to assess differences.

[4] = system: citric acid/histamine-stimulated cough model; assay: Cough efficacy assay of histamine/citric acid in guinea pigs; assay type: in vivo
Method: as §1, with “given histamine” for “given ATP”, “nebulization, followed by” for “nebulization, and after a few minutes, they were given”, “within 22” for “within 15”, “the histamine nebulization until the end of the observation period. For the statistics of experimental data, the” for “the citric acid nebulization. The”

[5] = Hygroscopicity by dynamic vapor sorption (DVS); assay type: physicochemical
Method: Dynamic vapor sorption (DVS) curves were acquired on a DVS IntrInsic from Surface Measurement Systems (SMS). The relative humidity at 25° C. was corrected with the deliquescence points of LiCl, Mg(NO3)2, and KCl.
Starting at 0% RH, the test acquired the percentage changes in mass of the samples when the humidity changed (0% RH to 95% RH to 0% RH) at a constant temperature of 25° C.

[6] = Competitive suspension tests of free base crystalline forms A/B; assay type: physicochemical; details: room temperature and 50° C.
Method: In order to confirm the thermodynamic transformation relationship between the anhydrous free base crystalline forms A and B under different temperature conditions, competitive suspension tests in n-heptane and toluene at room temperature and 50° C. were set up.

[7] = Dynamic solubility experiment at 37° C.; assay type: physicochemical
Method: In the test, the purity, dynamic solubility and stability were tested using an Agilent 1260 high-performance liquid chromatograph, the molar ratio of salt-forming ions was tested using ion chromatography, and the analytical conditions are shown in Tables A-4 and A-5 below.
Solids at a feeding concentration of 10 mg/mL (calculated based on free base) were rotationally mixed with corresponding vehicles at 37° C. […] After sampling at each time point, the samples were centrifuged (at 10000 rpm) and filtered (through a 0.45 μm PTFE filter head). The HPLC concentrations and pH values of the filtrates were determined.
100.2 mg of NaCl and 50.3 mg of Triton X-100 were weighed into a 50 mL volumetric flask and then completely dissolved by addition of purified water. 816 μL of 1 M hydrochloric acid was added, and the pH was adjusted to 1.8 with 1 M hydrochloric acid or 1 M NaOH solution. The mixed solution was brought to the volume by addition of purified water.
170.5 mg of anhydrous NaH2PO4, 22.2 mg of NaOH, and 310.9 mg of NaCl were weighed into a 50 mL volumetric flask and then completely dissolved by addition of purified water. The pH was adjusted to 6.5 with 1 M hydrochloric acid or 1 M NaOH solution. The mixed solution was brought to the volume by addition of purified water. Subsequently, 55.1 mg of SIF powder was weighed into a 25 mL volumetric flask and completely dissolved with the above solution, and the mixed solution was brought to the volume.
0.21 mL of glacial acetic acid, 101.6 mg of NaOH, and 295.4 mg of NaCl were added into a 25 mL volumetric flask and then completely dissolved by addition of about 20 mL of purified water. The pH was adjusted to 5.0 with 1 M hydrochloric acid or 1 M NaOH solution. The mixed solution was brought to the volume by addition of purified water, and then 280.8 mg of SIF powder was weighed into the flask and completely dissolved.

[8] = Solid state stability (XRPD and HPLC); assay type: physicochemical
Method: In the test, the purity, dynamic solubility and stability were tested using an Agilent 1260 high-performance liquid chromatograph, the molar ratio of salt-forming ions was tested using ion chromatography, and the analytical conditions are shown in Tables A-4 and A-5 below. [table]

[9] = male, ICR, mouse, plasma, mice, oral intragastric administration, 10 mg/kg
[10] = ATP/citric acid nebulization, intranasal instillation
[11] = citric acid/ATP-stimulated cough model
[12] = citric acid/histamine-stimulated cough model
[13] = histamine/citric acid nebulization, intranasal instillation
[14] = 25° C./60% RH/uncovered, 1 month
[15] = 25° C./60% RH/uncovered, 1 week
[16] = 40° C./75% RH/uncovered, 1 month
[17] = 40° C./75% RH/uncovered, 1 week

Question: With `Cc1cnc(-c2cc(O[C@@H](C)[C@@H](C)O)cc(C(=O)N[C@H](C)c3cnc(C(F)(F)F)nc3)c2F)s1` [Compound of formula I, 2-fluoro-5-(((2S,3R)-3-hydroxybutan-2-yl)oxy)-3-(5-methylthiazol-2-yl)-N—((R)-1-(2-(trifluoromethyl)pyrimidin-5-yl)ethyl)benzamide] as the molecule, how does the “Water/aqueous quinine solution intake ratio” value [1] read?
Answer: The value was 29.4.

Question: And the AUC(0-t) [2, 9]?
Answer: The AUC(0-t) was 15000 ng·h/mL.

Question: What about the Cmax [2, 9] of the same molecule?
Answer: Its Cmax is 3380 ng/mL.

Question: And the Tmax [2, 9]?
Answer: Its Tmax is 0.5 h.

Question: And the half-life ([2]; male, ICR, mouse, plasma, mice, oral intragastric administration, 10 mg/kg, read-out: T½ (converted))?
Answer: The half-life was 2.89 h.

Question: And the “pharmacokinetic properties compared to the control compounds 1 and 2” value ([2]; mouse model)?
Answer: Its value is “certain improvements in their pharmacokinetic properties”.

Question: And the “Cough inhibition rate vs. vehicle (%)” value [3, 10]?
Answer: The value was 68.2%.

Question: What about the “Mean number of coughs within 15 min” value [3, 10] of the same molecule?
Answer: Its value is 6.3.

Question: And the cough latency [3, 11]?
Answer: The cough latency was “prolonged the cough latency”.

Question: What about the “number of coughs compared to control compound 1” value [3, 11] of the same molecule?
Answer: Its value is “significantly reduced the number of coughs”.

Question: What about the cough latency [4, 12] of the same molecule?
Answer: The cough latency was “prolonged the cough latency”.

Question: What about the “number of coughs compared to control compound 1” value [4, 12] of the same molecule?
Answer: The value was “significantly reduced the number of coughs”.

Question: And the “Cough inhibition rate vs. vehicle (%)” value [4, 13]?
Answer: The value was 66.5%.

Question: And the “Mean number of coughs within 15 min” value [4, 13]?
Answer: Its value is 8.9.

Question: Which results are given for `Cc1cnc(-c2cc(O[C@@H](C)[C@@H](C)O)cc(C(=O)N[C@H](C)c3cnc(C(F)(F)F)nc3)c2F)s1` [Free base crystalline form A, 2-fluoro-5-(((2S,3R)-3-hydroxybutan-2-yl)oxy)-3-(5-methylthiazol-2-yl)-N—((R)-1-(2-(trifluoromethyl)pyrimidin-5-yl)ethyl)benzamide]?
Answer: crystalline form after DVS test ([5]; 0% RH to 95% RH to 0% RH, 25° C.): remained unchanged; vapor sorption ([5]; 25° C./80% RH): about 0.91%; hygroscopicity ([5]; DVS, 25° C./80% RH): slight hygroscopicity; thermodynamic stability of the crystalline form [6]: thermodynamically stable crystalline form; solubility at 4 h ([7]; FaSSIF, 37 °C, pH 6.5, fassif, thermodynamic from solid, FaSSIF, 4 h, read-out: S: solubility): 8 µg/mL (≈ 16 µM); Crystalline form change ([7]; FaSSIF, 1 h): No; S: solubility ([7]; FaSSIF, 1 h): 10 µg/mL; pH of filtrate ([7]; FaSSIF, 1 h): 6.5; Crystalline form change ([7]; FaSSIF, 4 h): No; pH of filtrate ([7]; FaSSIF, 4 h): 6.5; Crystalline form change ([7]; FaSSIF, 24 h): No; S: solubility ([7]; FaSSIF, 24 h): 9 µg/mL; pH of filtrate ([7]; FaSSIF, 24 h): 6.5; solubility at 24 h ([7]; FeSSIF, 37 °C, pH 5, fessif, thermodynamic from solid, FeSSIF, 24 h, read-out: S: solubility): 25 µg/mL (≈ 50.2 µM); Crystalline form change ([7]; FeSSIF, 1 h): No; S: solubility ([7]; FeSSIF, 1 h): 23 µg/mL; pH of filtrate ([7]; FeSSIF, 1 h): 5.0; Crystalline form change ([7]; FeSSIF, 4 h): No; S: solubility ([7]; FeSSIF, 4 h): 23 µg/mL; pH of filtrate ([7]; FeSSIF, 4 h): 5.0; Crystalline form change ([7]; FeSSIF, 24 h): No; pH of filtrate ([7]; FeSSIF, 24 h): 5.0; Crystalline form change ([7]; H2O, 1 h): No; S: solubility ([7]; H2O, 1 h): 3 µg/mL; pH of filtrate ([7]; H2O, 1 h): 8.8; Crystalline form change ([7]; H2O, 4 h): No; S: solubility ([7]; H2O, 4 h): 3 µg/mL; pH of filtrate ([7]; H2O, 4 h): 8.9; Crystalline form change ([7]; H2O, 24 h): No; S: solubility ([7]; H2O, 24 h): 3 µg/mL; pH of filtrate ([7]; H2O, 24 h): 9.0; crystalline form changes in the dynamic solubility tests ([7]; H2O, SGF, FaSSIF, FeSSIF): did not undergo any crystalline form changes; Crystalline form change ([7]; SGF, 1 h): No; S: solubility ([7]; SGF, 1 h): 13 µg/mL; pH of filtrate ([7]; SGF, 1 h): 1.8; Crystalline form change ([7]; SGF, 4 h): No; S: solubility ([7]; SGF, 4 h): 13 µg/mL; pH of filtrate ([7]; SGF, 4 h): 1.8; Crystalline form change ([7]; SGF, 24 h): No; S: solubility ([7]; SGF, 24 h): 12 µg/mL; pH of filtrate ([7]; SGF, 24 h): 1.8; HPLC Purity (area %) [8, 14]: 99.33 area %; HPLC purity Relative to starting (%) [8, 14]: 99.96%; HPLC Purity (area %) [8, 15]: 99.38 area %; HPLC purity Relative to starting (%) [8, 15]: 100.01%; HPLC Purity (area %) [8, 16]: 99.43 area %; HPLC purity Relative to starting (%) [8, 16]: 100.06%; HPLC Purity (area %) [8, 17]: 99.51 area %; HPLC purity Relative to starting (%) [8, 17]: 100.14%; change of HPLC purity after placement under the corresponding conditions ([8]; 60° C. sealed 1 day, 25° C./60% RH and 40° C./75% RH uncovered 1 week/1 month): no significant change; HPLC Purity (area %) ([8]; 60° C./sealed, 1 day): 99.44 area %; HPLC purity Relative to starting (%) ([8]; 60° C./sealed, 1 day): 100.07%; HPLC Purity (area %) ([8]; Starting): 99.37 area %
